Results from US20100048729A1, “Composition based on xanthoxyline and its use in cosmetic” (PIERRE FABRE DERMO-COSMETIQUE, priority 2006, published 2010).

Key:
3T3F442A preadipocytes [1] = conditions: adipocyte differentiation model over a long culture period; literature; cited from earlier work
[2] = test system: gram-positive and gram-negative bacteria; conditions: literature; cited from earlier work
Penicillium expansum = conditions: literature; cited from earlier work
[3] = test system: pathogenic fungi such as Trichophyton; conditions: literature; cited from earlier work
Candida albicans = conditions: literature; cited from earlier work
3T3F442A preadipocytes [4] = test: Adipocyte differentiation: triglyceride accumulation (Adipored) in differentiated 3T3F442A cells; type: cell-based; conditions: 168 h, 0.3 μg/ml, 7 days differentiation, FIG. 2, read-out: inhibition (accumulation of triglycerides), optimum activity
Method: The Applicant has studied on the one hand the effect of a dry extract of Zanthoxylum bungeanum, and on the other hand the effect of xanthoxyline, on the process of adipocyte differentiation and proliferation. […] 3T3F442A prepadipocytes are capable of differentiating into adipocytes in the presence of insulin, 3-isobutyl-1-methylxanthine and dexamethasone (the Journal of Pharmacology and Experimental Therapeutics: RIVAL Y., 2004, 311(2): 467-475). […] 3T3F442A cells are cultured in DMEM medium (GIBCOBRL, ref 32430-027) containing 10% foetal calf serum at 37° C., 5% CO2 in a humid atmosphere. They are seeded at 5000 cells per well (96-well plate). […] The visualisation and quantification of intracellular lipid vacuoles in the differentiated cells are analysed using Adipored reagent, a fluorescent colorant specific to triglycerides (neutral and amphiphilic lipids) (Journal of Cell Biology: […]., 1985, 100: 965-973). The culture medium is removed and the cells are rinsed with phosphate buffer D-PBS (GIBCOBRL, ref 21300-058). Adipored reagent is then added. After incubation for 10 minutes at ambient temperature, the fluorescence is measured (excitation 485 nm, emission 530 nm). A histological analysis using a confocal Laser microscope (ZEISS LSM 410 Invert Laser scan Microscope) is also carried out at 543 nm.

In the case of TNFα, the “inhibition of the accumulation of triglycerides” value (3T3F442A preadipocytes [1]) is given as “known to inhibit the accumulation of triglycerides”.

In the case of COc1cc(O)c(C(C)=O)c(OC)c1 [Xanthoxyline, 4,6-dimethoxy-2-hydroxyacetophenone], the Anti-bacterial activity [2] is given as “mediocre”, the Anti-fungal activity (Penicillium expansum) is given as “moderate” and the Anti-fungal activity [3] is given as “moderate”. The Anti-fungal activity (Candida albicans) was “moderate” and the inhibition at 0.3 µg/mL (3T3F442A preadipocytes [4]) was 12%.
